In patent US4892740A, “Orally administrable pharmaceutical preparation of improved flavoring characteristics” (Taisho Pharmaceutical Co., Ltd., priority 1987, dated 1990):

Assay: Blood concentration of TE-031 after oral administration to Beagle dogs (bioassay method)
Format: in vivo
Settings: dog, male Beagle dogs
Protocol: Test Animals Five male Beagle dogs weighing 10 kg were used as experimental animals. Sample The pharmaceutical preparation obtained in Example 1 (coated particles containing 39% of TE-031 prepared by using AEA powder having an average particle diameter of 16 microns as the powder bed) was used in an amount of 100 mg as TE-031. Testing procedure The sample was orally administered together with water to the experimental animals, and the concentration of TE-031 in the blood was measured by the bioassay method. Then after a period of 10 days during which the sample was not administered, a capsule containing 100 mg of the bulk of TE-031 was orally administered as a control together with water. The concentration of TE-031 in the blood was likewise measured by bioassay.

AUC (100 mg as TE-031, read-out: area below the blood level curve): 42400 ng·h/mL
Cmax (100 mg as TE-031, read-out: maximum blood level): 3060 ng/mL
Tmax (100 mg as TE-031, read-out: time of highest blood level): 2 h
Structure (SMILES): CC[C@H]1OC(=O)[C@H](C)[C@@H](O[C@H]2C[C@@](C)(OC)[C@@H](O)[C@H](C)O2)[C@H](C)[C@@H](O[C@@H]2O[C@H](C)C[C@H](N(C)C)[C@H]2O)[C@](C)(OC)C[C@@H](C)C(=O)[C@H](C)[C@@H](O)[C@]1(C)O [bulk, 6-O-methylerythromycin A]
